We go through 39 compounds from US7115622B2, “Amido ether substituted imidazoquinolines” (3M Innovative Properties Company, priority 2000, dated 2006).

Test [1] has as its system tumor necrosis factor (α). In words: Cytokine Induction in Human Cells: tumor necrosis factor induction in PBMC. It counts as cell-based. Further details: key to Lowest Effective Concentration (μM) Tumor Necrosis Factor: *: no induction was seen at any of the tested concentrations; generally the highest concentration tested was 10 or 30 μM. The conditions noted are these: 18 to 24 hours incubation, tested 30–0.014 μM, ELISA or IGEN assay; for minimal effective concentration: read-out: Lowest Effective Concentration (μM) Tumor Necrosis Factor. From the text: (§1) An in vitro human blood cell system is used to assess cytokine induction. Activity is based on the measurement of interferon and tumor necrosis factor (α) (IFN and TNF, respectively) secreted into culture media as described by Testerman et. al. In “Cytokine Induction by the Immunomodulators Imiquimod and S-27609”, Journal of Leukocyte Biology, 58, 365–372 (September, 1995).
(§2) Whole blood from healthy human donors is collected by venipuncture into EDTA vacutainer tubes. Peripheral blood mononuclear cells (PBMC) are separated from whole blood by density gradient centrifugation using Histopaque®-1077. Blood is diluted 1:1 with Dulbecco's Phosphate Buffered Saline (DPBS) or Hank's Balanced Salts Solution (HBSS). The PBMC layer is collected and washed twice with DPBS or HBSS and resuspended at 4×10^6 cells/mL in RPMI complete. The PBMC suspension is added to 48 well flat bottom sterile tissue culture plates (Costar, Cambridge, Mass. or Becton Dickinson Labware, Lincoln Park, N.J.) containing an equal volume of RPMI complete media containing test compound.
(§3) The compounds are solubilized in dimethyl sulfoxide (DMSO). The DMSO concentration should not exceed a final concentration of 1% for addition to the culture wells. The compounds are generally tested at concentrations ranging from 30–0.014 μM.
(§4) The solution of test compound is added at 60 μM to the first well containing RPMI complete and serial 3 fold dilutions are made in the wells. The PBMC suspension is then added to the wells in an equal volume, bringing the test compound concentrations to the desired range (30–0.014 μM). The final concentration of PBMC suspension is 2×10^6 cells/mL. The plates are covered with sterile plastic lids, mixed gently and then incubated for 18 to 24 hours at 37° C. in a 5% carbon dioxide atmosphere.
(§5) Following incubation the plates are centrifuged for 10 minutes at 1000 rpm (˜200×g) at 4° C. The cell-free culture supernatant is removed with a sterile polypropylene pipet and transferred to sterile polypropylene tubes. Samples are maintained at −30 to −70° C. until analysis. The samples are analyzed for interferon (α) by ELISA and for tumor necrosis factor (α) by ELISA or IGEN Assay
Tumor necrosis factor (α) (TNF) concentration is determined using ELISA kits available from Biosource International, Camarillo, Calif. Alternately, the TNF concentration can be determined by Origen® M-Series Immunoassay and read on an IGEN M-8 analyzer from IGEN International, Gaithersburg, Md. The immunoassay uses a human TNF capture and detection antibody pair from Biosource International, Camarillo, Calif. Results are expressed in pg/mL.
(§6) The table below lists the lowest concentration found to induce interferon and the lowest concentration found to induce tumor necrosis factor for each compound.
On the technique in general: An ELISA detects its analyte on a solid surface through an enzyme-linked reagent.

A further test concerns interferon (α). As to the kind of experiment: Cytokine Induction in Human Cells: interferon induction in PBMC. In kind it is cell-based. The arrangement: key to Lowest Effective Concentration (μM) Interferon: *: no induction was seen at any of the tested concentrations; generally the highest concentration tested was 10 or 30 μM. The following applies: 18 to 24 hours incubation, tested 30–0.014 μM, ELISA; for minimal effective concentration: read-out: Lowest Effective Concentration (μM) Interferon.
Excerpt: as §1, §2, §3, §4, §5
Interferon (α) and Tumor Necrosis Factor (α) Analysis by ELISA Interferon (α) concentration is determined by ELISA using a Human Multi-Species kit from PBL Biomedical Laboratories, New Brunswick, N.J. Results are expressed in pg/mL.
as §6

For `Nc1nc2ccccc2c2c1ncn2CCOCCNC(=O)COCc1ccccc1` [Example 62], the minimal effective concentration in test [1] is 10 µM; in the test with interferon (α), 1 µM.
For the compound `Nc1nc2ccccc2c2c1ncn2CCOCCNC(=O)C1CCCCC1` [Example 54], the minimal effective concentration (in test [1]; in the test on interferon (α)) was 10 µM in each case.
With `CCCCc1nc2c(N)nc3ccccc3c2n1CCOCCNC(=O)c1cccc(C#N)c1` [Example 24], the values for the minimal effective concentration (in test [1]; in the test with interferon (α)) were 10 µM and 1 µM, respectively.
For `CCC(COCCC1CCN(C(=O)[C@@H]2C[C@H]2c2ccccc2)CC1)n1cnc2c(N)nc3ccccc3c21` (stereo partly drawn) [Example 47], the “Lowest Effective Concentration (μM) Tumor Necrosis Factor” value in test [1] is reported as “*”. For the same compound, the minimal effective concentration in the test on interferon (α) was determined as 1 µM.
For `CCCCC(=O)NCCOCCn1c(CCCC)nc2c(N)nc3ccccc3c21` [Example 16], the minimal effective concentration was 1 µM in test [1] and 0.1 µM in the test with interferon (α).
`CCCCc1nc2c(N)nc3ccccc3c2n1CCOCCNC(=O)c1cccc2ccccc12` [Example 31]: the minimal effective concentration in test [1] was 10 µM. The “Lowest Effective Concentration (μM) Interferon” value in the test on interferon (α) is “*”.
Turning to `CCC(COCCC1CCN(C(=O)Cc2ccccc2)CC1)n1cnc2c(N)nc3ccccc3c21` (stereo not drawn) [Example 39], the minimal effective concentration in test [1] was 10 µM; in the test on interferon (α) it was 1 µM.
Regarding `CCCCc1nc2c(N)nc3ccccc3c2n1CCOCCNC(=O)c1cccc(OC)c1` [Example 26], the minimal effective concentration in test [1] turned out to be 10 µM; in the test on interferon (α), 1 µM.
For the compound `Nc1nc2ccccc2c2c1ncn2CCOCCNC(=O)c1cccc(C(F)(F)F)c1` [Example 64], the “Lowest Effective Concentration (μM) Tumor Necrosis Factor” value in test [1] is recorded as “*”. For the same compound, the minimal effective concentration with interferon (α) came to 10 µM.
Take `CCC(COCCC1CCN(C(=O)c2ccccc2)CC1)n1cnc2c(N)nc3ccccc3c21` (stereo not drawn) [Example 38]: the minimal effective concentration was found to be 10 µM in test [1] and 1 µM with interferon (α).
Take `CCC(COCCC1CCN(C(=O)Cc2cccs2)CC1)n1cnc2c(N)nc3ccccc3c21` (stereo not drawn) [Example 41]: the minimal effective concentration in test [1] worked out at 1 µM; in the test with interferon (α), 0.1 µM.
As to `CCCCc1nc2c(N)nc3ccccc3c2n1CCOCCNC(=O)C1CCCC1` [Example 17], the minimal effective concentration (in test [1]; with interferon (α)) was 1 µM each time.
In the case of `CCCCc1nc2c(N)nc3ccccc3c2n1CCOCCNC(=O)c1ccc(OC)cc1` [Example 27], the minimal effective concentration in test [1] is 10 µM; in the test on interferon (α) it was 1 µM.
For `CCCCC(=O)N1CCC(CCOCC(CC)n2cnc3c(N)nc4ccccc4c32)CC1` (stereo not drawn) [Example 36], the minimal effective concentration (in test [1]; in the test on interferon (α)) was 1 µM in each case.
In the case of `CCC(COCCC1CCN(C(=O)c2ccc(Cl)nc2)CC1)n1cnc2c(N)nc3ccccc3c21` (stereo not drawn) [Example 45], the minimal effective concentration in test [1] came out at 1 µM; in the test on interferon (α), 0.1 µM.
`CCCCc1nc2c(N)nc3ccccc3c2n1CCOCCNC(=O)CCc1ccccc1` [Example 25]: the minimal effective concentration in test [1] is 10 µM; with interferon (α), 1 µM.
Turning to `CCC(COCCC1CCN(C(=O)c2ccc(OC)cc2)CC1)n1cnc2c(N)nc3ccccc3c21` (stereo not drawn) [Example 44], the minimal effective concentration (in test [1]; in the test with interferon (α)) was 1 µM throughout.
For `CCCCN(C(=O)CCCCOCCn1cnc2c(N)nc3ccccc3c21)c1ccccc1` [Example 13, 5-[2-(4-amino-1H-imidazo[4,5-c]quinolin-1-yl)ethoxy]-N-butyl-N-phenylpentanamide], the “Lowest Effective Concentration (μM) Tumor Necrosis Factor” value in test [1] is on record as “*”. Further, in the test on interferon (α), the minimal effective concentration came to 10 µM.
In the case of `CCCCc1nc2c(N)nc3ccccc3c2n1CCOCCNC(=O)[C@@H]1C[C@H]1c1ccccc1` [Example 29], the minimal effective concentration is 10 µM in test [1] and 1 µM in the test on interferon (α).
Take `COc1ccc(C(=O)NCCOCCn2cnc3c(N)nc4ccccc4c32)cc1` [Example 60]: the minimal effective concentration (in test [1]; in the test on interferon (α)) was 10 µM in each case.
Consider `CCC(COCCC1CCN(C(=O)c2cccc(C#N)c2)CC1)n1cnc2c(N)nc3ccccc3c21` (stereo not drawn) [Example 42], for which the minimal effective concentration (in test [1]; in the test with interferon (α)) was 1 µM throughout.
`CCCCc1nc2c(N)nc3ccccc3c2n1CCOCCNC(=O)C1CC1` [Example 15]: the minimal effective concentration in test [1] came to 1 µM; with interferon (α), 0.1 µM.
Consider `Nc1nc2ccccc2c2c1ncn2CCOCCNC(=O)Cc1ccccc1` [Example 55], for which the minimal effective concentration in test [1] came to 10 µM; with interferon (α) it was 1 µM.
In the same order, the values of `Nc1nc2ccccc2c2c1ncn2CCOCCNC(=O)CCc1ccccc1` [Example 58] are 10 µM and 10 µM.
Consider `Nc1nc2ccccc2c2c1ncn2CCOCCNC(=O)c1ccc(Cl)nc1` [Example 61], for which the minimal effective concentration (in test [1]; in the test on interferon (α)) was 10 µM in each case.
Turning to `Nc1nc2ccccc2c2c1ncn2CCOCCNC(=O)c1ccccc1` [Example 53], the minimal effective concentration (in test [1]; in the test on interferon (α)) was 10 µM throughout.
`CCCCc1nc2c(N)nc3ccccc3c2n1CCOCCNC(=O)c1ccccc1` [Example 18]: the minimal effective concentration in test [1] came out at 10 µM; in the test with interferon (α) it was 1 µM.
Turning to `CCCCc1nc2c(N)nc3ccccc3c2n1CCOCCNC(=O)Cc1cccs1` [Example 22], the minimal effective concentration in test [1] turned out to be 10 µM; in the test with interferon (α) it was 0.1 µM.
For `CCCCc1nc2c(N)nc3ccccc3c2n1CCOCCNC(=O)Cc1ccccc1` [Example 20], the minimal effective concentration in test [1] stood at 10 µM; in the test on interferon (α) it was 0.1 µM.
Consider `CCC(COCCC1CCN(C(=O)CCc2ccccc2)CC1)n1cnc2c(N)nc3ccccc3c21` (stereo not drawn) [Example 43], for which the results for the minimal effective concentration (in test [1]; in the test on interferon (α)) were 10 µM and 1 µM, respectively.
As for `CCC(COCCC1CCN(C(=O)c2ccc3ccccc3c2)CC1)n1cnc2c(N)nc3ccccc3c21` (stereo not drawn) [Example 49], the values for the minimal effective concentration (in test [1]; with interferon (α)) were 10 µM and 1 µM, respectively.
With `CCC(COCCC1CCN(C(=O)COCc2ccccc2)CC1)n1cnc2c(N)nc3ccccc3c21` (stereo not drawn) [Example 48], the values for the minimal effective concentration (in test [1]; in the test with interferon (α)) were 10 µM and 0.1 µM, respectively.
`CCC(COCCC1CCN(C(=O)C2CCCC2)CC1)n1cnc2c(N)nc3ccccc3c21` (stereo not drawn) [Example 37]: the minimal effective concentration (in test [1]; in the test on interferon (α)) was 1 µM in each case.
Turning to `CCCCC(=O)NCCOCCn1cnc2c(N)nc3ccccc3c21` [Example 52], the minimal effective concentration (in test [1]; in the test with interferon (α)) was 10 µM each time.
On to `CCC(COCCC1CCN(C(=O)c2ccc(F)cc2)CC1)n1cnc2c(N)nc3ccccc3c21` (stereo not drawn) [Example 40], for which the minimal effective concentration (in test [1]; in the test with interferon (α)) was 1 µM each time.
As for `COc1cccc(C(=O)NCCOCCn2cnc3c(N)nc4ccccc4c32)c1` [Example 59], the minimal effective concentration (in test [1]; with interferon (α)) was 10 µM in each case.
For the compound `CCCCc1nc2c(N)nc3ccccc3c2n1CCOCCNC(=O)COCc1ccccc1` [Example 30], the minimal effective concentration was 10 µM in test [1] and 1 µM in the test on interferon (α).
In the case of `CCC(COCCC1CCN(C(=O)c2cccnc2)CC1)n1cnc2c(N)nc3ccccc3c21` (stereo not drawn) [Example 46], the minimal effective concentration came to 1 µM in test [1] and 0.1 µM in the test on interferon (α).
In the same order, the values of `CCCCc1nc2c(N)nc3ccccc3c2n1CCOCCNC(=O)c1ccc(Cl)nc1` [Example 28] are 10 µM and 1 µM.
